Experimental data as given in PubChem BioAssay AID2060612 (Molecular Pharmacology Branch, DTP, NCI, 2025).

Tested on: 565232-114-T-J1-PDC complex spheroid viability
Assay: Anticancer human tumor 565232-114-T-J1-PDC patient-derived bladder carcinoma cell line growth inhibition [CLK]
Details: for IC50: curve of first compound; for viability, T/C: stronger effect = lower value
How it was run: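 Patient-derived tumor cells grown as complex spheroids with HUVEC endothelial cells and mesenchymal stem cells, treated with drug combinations. Concentrations descend in half-log steps from near clinical Cmax, or from 10 microM if Cmax unknown.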

[1] = second compound 0.0316 µM, first compound 0.0316 µM
[2] = second compound 0.0316 µM, first compound 0.1 µM
[3] = second compound 0.0316 µM, first compound 0.316 µM
[4] = second compound 0.0316 µM, first compound 1 µM
[5] = second compound 0.0316 µM, first compound 3.16 µM
[6] = second compound 0.0316 µM, first compound 10 µM
[7] = second compound 0.1 µM, first compound 0.0316 µM
[8] = second compound 0.1 µM, first compound 0.1 µM
[9] = second compound 0.1 µM, first compound 0.316 µM
[10] = second compound 0.1 µM, first compound 1 µM
[11] = second compound 0.1 µM, first compound 3.16 µM
[12] = second compound 0.1 µM, first compound 10 µM
[13] = second compound 0.316 µM, first compound 0.0316 µM
[14] = second compound 0.316 µM, first compound 0.1 µM
[15] = second compound 0.316 µM, first compound 0.316 µM
[16] = second compound 0.316 µM, first compound 1 µM
[17] = second compound 0.316 µM, first compound 3.16 µM
[18] = second compound 0.316 µM, first compound 10 µM
[19] = second compound 1 µM, first compound 0.0316 µM
[20] = second compound 1 µM, first compound 0.1 µM
[21] = second compound 1 µM, first compound 0.316 µM
[22] = second compound 1 µM, first compound 1 µM
[23] = second compound 1 µM, first compound 3.16 µM
[24] = second compound 1 µM, first compound 10 µM
[25] = second compound 3.16 µM, first compound 0.0316 µM
[26] = second compound 3.16 µM, first compound 0.1 µM
[27] = second compound 3.16 µM, first compound 0.316 µM
[28] = second compound 3.16 µM, first compound 1 µM
[29] = second compound 3.16 µM, first compound 3.16 µM
[30] = second compound 3.16 µM, first compound 10 µM
[31] = second compound 10 µM, first compound 0.0316 µM
[32] = second compound 10 µM, first compound 0.1 µM
[33] = second compound 10 µM, first compound 0.316 µM
[34] = second compound 10 µM, first compound 1 µM
[35] = second compound 10 µM, first compound 3.16 µM
[36] = second compound 10 µM, first compound 10 µM
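Note: spheroids exposed to compounds for 7 days before readout.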
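Throughout, for viability, T/C: 100% = DMSO vehicle wells with luminescence normalized to vehicle control.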

**Q.** `COc1cccc2c1C(=O)c1c(O)c3c(c(O)c1C2=O)CC(O)(C(=O)CO)CC3OC1CC(N)C(O)C(C)O1` (stereo unspecified) + CNC(=O)c1ccc(Nc2nc(OC3CCCC3)c3c(-c4ccc5nc(C)oc5c4)c[nH]c3n2)c(OC)c1 was tested. Which IC50 (second compound 0.0316 µM) did it give?
**A.** 115 nM

**Q.** What about the IC50 (second compound 0.1 µM) of the same compound?
**A.** < 31.6 nM

**Q.** What about the IC50 (second compound 0.316 µM) of the same compound?
**A.** < 31.6 nM

**Q.** What about the IC50 (second compound 1 µM) of the same compound?
**A.** < 31.6 nM

**Q.** What about the IC50 (second compound 3.16 µM) of the same compound?
**A.** < 31.6 nM

**Q.** And the IC50 (second compound 10 µM)?
**A.** < 31.6 nM

**Q.** And the viability, T/C [1]?
**A.** 96.7%

**Q.** What about the viability, T/C [2] of the same compound?
**A.** 55.5%

**Q.** What about the viability, T/C [3] of the same compound?
**A.** 10%

**Q.** And the viability, T/C [4]?
**A.** 0.25%

**Q.** What about the viability, T/C [5] of the same compound?
**A.** 0.24%

**Q.** What about the viability, T/C [6] of the same compound?
**A.** 0.28%

**Q.** What about the viability, T/C [7] of the same compound?
**A.** 44.4%

**Q.** What about the viability, T/C [8] of the same compound?
**A.** 22.9%

**Q.** And the viability, T/C [9]?
**A.** 7.66%

**Q.** What about the viability, T/C [10] of the same compound?
**A.** 0.28%

**Q.** And the viability, T/C [11]?
**A.** 0.22%

**Q.** What about the viability, T/C [12] of the same compound?
**A.** 0.23%

**Q.** What about the viability, T/C [13] of the same compound?
**A.** 21.8%

**Q.** And the viability, T/C [14]?
**A.** 18.6%

**Q.** What about the viability, T/C [15] of the same compound?
**A.** 5.6%

**Q.** And the viability, T/C [16]?
**A.** 0.86%

**Q.** What about the viability, T/C [17] of the same compound?
**A.** 0.19%

**Q.** What about the viability, T/C [18] of the same compound?
**A.** 1.3%

**Q.** What about the viability, T/C [19] of the same compound?
**A.** 15.9%

**Q.** What about the viability, T/C [20] of the same compound?
**A.** 12.4%

**Q.** What about the viability, T/C [21] of the same compound?
**A.** 3.59%

**Q.** What about the viability, T/C [22] of the same compound?
**A.** 0.42%

**Q.** What about the viability, T/C [23] of the same compound?
**A.** 0.14%

**Q.** What about the viability, T/C [24] of the same compound?
**A.** 0.26%

**Q.** What about the viability, T/C [25] of the same compound?
**A.** 12.7%

**Q.** What about the viability, T/C [26] of the same compound?
**A.** 9.58%

**Q.** What about the viability, T/C [27] of the same compound?
**A.** 2.15%

**Q.** And the viability, T/C [28]?
**A.** 0.1%

**Q.** What about the viability, T/C [29] of the same compound?
**A.** 0.69%

**Q.** What about the viability, T/C [30] of the same compound?
**A.** 0.49%

**Q.** What about the viability, T/C [31] of the same compound?
**A.** 13.7%

**Q.** And the viability, T/C [32]?
**A.** 9.24%

**Q.** And the viability, T/C [33]?
**A.** 3.57%

**Q.** And the viability, T/C [34]?
**A.** 0.73%

**Q.** And the viability, T/C [35]?
**A.** 1.86%

**Q.** What about the viability, T/C [36] of the same compound?
**A.** 0.29%

**Q.** What does the source list for `Nc1ccn(C2OC(CO)C(O)C2(F)F)c(=O)n1` (stereo unspecified) + CNC(=O)c1ccc(Nc2nc(OC3CCCC3)c3c(-c4ccc5nc(C)oc5c4)c[nH]c3n2)c(OC)c1?
**A.** IC50 (second compound 0.0316 µM): 36 nM; IC50 (second compound 0.1 µM): < 31.6 nM; IC50 (second compound 0.316 µM): < 31.6 nM; IC50 (second compound 1 µM): < 31.6 nM; IC50 (second compound 3.16 µM): < 31.6 nM; IC50 (second compound 10 µM): < 31.6 nM; viability, T/C [1]: 54.3%; viability, T/C [2]: 18.6%; viability, T/C [3]: 8.71%; viability, T/C [4]: 7.4%; viability, T/C [5]: 11.2%; viability, T/C [6]: 13.6%; viability, T/C [7]: 35.7%; viability, T/C [8]: 22%; viability, T/C [9]: 8.15%; viability, T/C [10]: 9.21%; viability, T/C [11]: 13.3%; viability, T/C [12]: 11.8%; viability, T/C [13]: 26.2%; viability, T/C [14]: 19.5%; viability, T/C [15]: 8.41%; viability, T/C [16]: 7.45%; viability, T/C [17]: 12.3%; viability, T/C [18]: 12.2%; viability, T/C [19]: 16.9%; viability, T/C [20]: 14.9%; viability, T/C [21]: 8.75%; viability, T/C [22]: 7.6%; viability, T/C [23]: 9.48%; viability, T/C [24]: 8.93%; viability, T/C [25]: 19.3%; viability, T/C [26]: 14.5%; viability, T/C [27]: 5.99%; viability, T/C [28]: 5.99%; viability, T/C [29]: 6.76%; viability, T/C [30]: 6.01%; viability, T/C [31]: 17.7%; viability, T/C [32]: 13.9%; viability, T/C [33]: 6.66%; viability, T/C [34]: 6.31%; viability, T/C [35]: 6.89%; viability, T/C [36]: 5.15%

**Q.** Which results are given for `O=c1[nH]cc(F)c(=O)[nH]1` + CNC(=O)c1ccc(Nc2nc(OC3CCCC3)c3c(-c4ccc5nc(C)oc5c4)c[nH]c3n2)c(OC)c1?
**A.** IC50 (second compound 0.0316 µM): > 10000 nM; IC50 (second compound 0.1 µM): < 31.6 nM; IC50 (second compound 0.316 µM): < 31.6 nM; IC50 (second compound 1 µM): < 31.6 nM; IC50 (second compound 3.16 µM): < 31.6 nM; IC50 (second compound 10 µM): < 31.6 nM; viability, T/C [1]: 84.3%; viability, T/C [2]: 96.8%; viability, T/C [3]: 97.1%; viability, T/C [4]: 108%; viability, T/C [5]: 87.3%; viability, T/C [6]: 72.4%; viability, T/C [7]: 44%; viability, T/C [8]: 50%; viability, T/C [9]: 44%; viability, T/C [10]: 48%; viability, T/C [11]: 41%; viability, T/C [12]: 46.1%; viability, T/C [13]: 29.7%; viability, T/C [14]: 31.4%; viability, T/C [15]: 31.2%; viability, T/C [16]: 36%; viability, T/C [17]: 35.3%; viability, T/C [18]: 40.1%; viability, T/C [19]: 20.1%; viability, T/C [20]: 21%; viability, T/C [21]: 19.4%; viability, T/C [22]: 23.1%; viability, T/C [23]: 23.8%; viability, T/C [24]: 28.5%; viability, T/C [25]: 16.9%; viability, T/C [26]: 16.4%; viability, T/C [27]: 17.8%; viability, T/C [28]: 19.6%; viability, T/C [29]: 18.6%; viability, T/C [30]: 21.3%; viability, T/C [31]: 21.3%; viability, T/C [32]: 16.1%; viability, T/C [33]: 18.2%; viability, T/C [34]: 19.9%; viability, T/C [35]: 18.1%; viability, T/C [36]: 18.9%
